Measured values taken from patent US20070049593A1 (priority 2004, published 2007).
pIC50: −log10 of the molar value. Structures can show the parent of a compound that is named as a salt.

Biological target: T1, HCV polymerase (Hepatitis C virus genotype 1b, UniProt P26663)
T1 construct: a region encoding NS5B (J Virol 1991 March, 65(3), 1105-13, 544 amino acids after deletion of 47 amino acids on the C-terminal); 6xHis (C); made in house; host or cells: Escherichia coli
Test: biochemical
Parameters: species or system HCV BK strain
From the text: The evaluation of the HCV polymerase inhibitory activity of the compound of the present invention is explained in the following. This polymerase is an enzyme coded for by the non-structural protein region called NS5B on the genome RNA of HCV (EMBO J., 15:12-22, 1996).
Using, as a template, a cDNA clone corresponding to the full length genome RNA of HCV BK strain obtained from the blood of a patient with hepatitis C, a region encoding NS5B (J Virol 1991 March, 65(3), 1105-13, 544 amino acids after deletion of 47 amino acids on the C-terminal) was amplified by PCR. The objective gene was prepared by adding a 6 His tag {base pair encoding 6 continuous histidine (His)}to the 3′ end thereof and transformed to Escherichia coli. The Escherichia coli capable of producing the objective protein was cultured. The obtained cells were suspended in a buffer solution and crushed in a microfluidizer.
Using a synthetic primer designed based on the sequence of HCV genomic 3′ untranslated region, a DNA fragment (148 bp) containing polyU and 3′X sequence was entirely synthesized and cloned into plasmid pBluescript SK II(+) (Stratagene). The cDNA encoding full length NS5B, which was prepared in i) above, was digested with restriction enzyme KpnI to give a cDNA fragment containing the nucleotide sequence of from the restriction enzyme cleavage site to the termination codon. This cDNA fragment was inserted into the upstream of 3′ untranslated region of the DNA in pBluescript SK II(+) and ligated. The about 450 bp inserted DNA sequence was used as a template in the preparation of substrate RNA.
RNA was synthesized (37° C., 3 hr) by run-off method using this purified DNA as a template, a promoter of pBluescript SK II(+), MEGAscript RNA synthesis kit (Ambion) and T7 RNA polymerase. DNase I was added and the mixture was incubated for 1 hr. The template DNA was removed by decomposition to give a crude RNA product.
A test substance (compound of the present invention) and a reaction mixture (30 μl) having the following composition were reacted at 25° C. for 90 min.
10% Trichloroacetic acid at 4° C. and 1% sodium pyrophosphate solution (150 μl) were added to this reaction mixture to stop the reaction. The reaction mixture was left standing in ice for 15 min to insolubilize RNA. This RNA was trapped on a glass filter (Whatman GF/C and the like) upon filtration by suction. This filter was washed with a solution containing 1% trichloroacetic acid and 0.1% sodium pyrophosphate, washed with 90% ethanol and dried. A liquid scintillation cocktail (Packard) was added and the radioactivity of RNA synthesized by the enzyme reaction was measured on a liquid scintillation counter.
The HCV polymerase inhibitory activity (IC50) of the compound of the present invention was calculated from the values of radioactivity of the enzyme reaction with and without the test substance.
Reaction mixture: HCV polymerase (0.5 μg/ml) obtained in i), substrate RNA (5 μg/ml) obtained in ii), ATP (50 μM), GTP (50 μM), CTP ([…]), UTP (2 μM), [5,6-^3H]UTP (46 Ci/mmol (Amersham), 1 μCi) 20 mM Tris-HCl (pH 7.5), EDTA (1 mM), MgCl2 (5 mM), NaCl (50 mM), DTT (1 mM), BSA (0.01%)

T1 sequence (P26663 2420-2963): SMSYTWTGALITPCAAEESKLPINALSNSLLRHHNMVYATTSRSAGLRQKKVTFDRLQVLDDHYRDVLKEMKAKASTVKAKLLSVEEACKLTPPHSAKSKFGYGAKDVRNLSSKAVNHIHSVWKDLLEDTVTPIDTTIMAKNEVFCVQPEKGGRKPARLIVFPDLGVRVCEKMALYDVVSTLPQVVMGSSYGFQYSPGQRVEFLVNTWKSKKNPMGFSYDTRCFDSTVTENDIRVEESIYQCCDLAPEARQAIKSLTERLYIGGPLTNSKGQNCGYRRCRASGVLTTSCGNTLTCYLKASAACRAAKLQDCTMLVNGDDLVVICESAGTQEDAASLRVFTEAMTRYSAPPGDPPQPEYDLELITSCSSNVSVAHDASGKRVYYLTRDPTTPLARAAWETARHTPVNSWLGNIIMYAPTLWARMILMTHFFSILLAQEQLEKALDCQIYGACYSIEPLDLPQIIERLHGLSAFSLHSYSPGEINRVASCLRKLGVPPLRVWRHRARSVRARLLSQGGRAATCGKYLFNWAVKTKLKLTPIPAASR

Structure (SMILES) | pIC50
O=C(O)c1ccc2c(C3CCCCC3)c3n(c2c1)CCNc1ccccc1-3 [Example 1-3, 13-cyclohexyl-6,7-dihydro-5H-benzo[5,6][1,4]diazepino[7,1-a]indole-10-carboxylic acid monohydrochloride] | > 7.00
O=C(O)c1ccc2c(C3CCCCC3)c3n(c2c1)CCN(CC(=O)N1CCSCC1)c1ccccc1-3 [Example 1-7, 13-cyclohexyl-5-[2-oxo-2-(thiomorpholin-4-yl)ethyl]-6,7-dihydro-5H-benzo[5,6][1,4]diazepino[7,1-a]indole-10-carboxylic acid monohydrochloride] | > 7.00
O=C(O)c1ccc2c(C3CCCCC3)c3n(c2c1)CCN(CCN1CCSCC1)c1ccccc1-3 [Example 1-9, 13-cyclohexyl-5-[2-(thiomorpholin-4-yl)ethyl]-6,7-dihydro-5H-benzo[5,6][1,4]diazepino[7,1-a]indole-10-carboxylic acid dihydrochloride] | > 7.00
O=C(O)c1ccc2c(C3CCCCC3)c3n(c2c1)CCN(CCN1CCCCC1)c1cc(Cl)ccc1-3 [Example 1-14, 3-chloro-13-cyclohexyl-5-[2-(piperidin-1-yl)ethyl]-6,7-dihydro-5H-benzo[5,6][1,4]diazepino[7,1-a]indole-10-carboxylic acid dihydrochloride] | > 7.00
O=C(O)c1ccc2c(C3CCCCC3)c3n(c2c1)CCN(CCN1CCCCC1)c1ccc(F)cc1-3 [Example 1-18, 13-cyclohexyl-2-fluoro-5-[2-(piperidin-1-yl)ethyl]-6,7-dihydro-5H-benzo[5,6][1,4]diazepino[7,1-a]indole-10-carboxylic acid dihydrochloride] | > 7.00
CC(=O)N1CCn2c(c(C3CCCCC3)c3ccc(C(=O)O)cc32)-c2ccccc21 [Example 1-19, 5-acetyl-13-cyclohexyl-6,7-dihydro-5H-benzo[5,6][1,4]diazepino[7,1-a]indole-10-carboxylic acid] | 6.00 to 7.00
CN1CCn2c(c(C3CCCCC3)c3ccc(C(=O)O)cc32)-c2ccccc21 [Example 1-20, 13-cyclohexyl-5-methyl-6,7-dihydro-5H-benzo[5,6][1,4]diazepino[7,1-a]indole-10-carboxylic acid] | > 7.00
CN(C)C(=O)CN1CCn2c(c(C3CCCCC3)c3ccc(C(=O)O)cc32)-c2ccccc21 [Example 1-21, 13-cyclohexyl-5-dimethylcarbamoylmethyl-6,7-dihydro-5H-benzo[5,6][1,4]diazepino[7,1-a]indole-10-carboxylic acid] | > 7.00
O=C(O)c1ccc2c(C3CCCCC3)c3n(c2c1)CCN(Cc1ccccc1)c1ccccc1-3 [Example 1-22, 5-benzyl-13-cyclohexyl-6,7-dihydro-5H-benzo[5,6][1,4]diazepino[7,1-a]indole-10-carboxylic acid] | > 7.00
CC(C)N1CCn2c(c(C3CCCCC3)c3ccc(C(=O)O)cc32)-c2ccccc21 [Example 1-23, 13-cyclohexyl-5-isopropyl-6,7-dihydro-5H-benzo[5,6][1,4]diazepino[7,1-a]indole-10-carboxylic acid monohydrochloride] | > 7.00
O=C1Cn2c(c(C3CCCCC3)c3ccc(C(=O)O)cc32)-c2ccccc2N1 [Example 1-24, 13-cyclohexyl-6-oxo-6,7-dihydro-5H-benzo[5,6][1,4]diazepino[7,1-a]indole-10-carboxylic acid] | > 7.00
O=C(CN1CCn2c(c(C3CCCCC3)c3ccc(C(=O)O)cc32)-c2ccccc21)NCc1ccccc1 [Example 1-25, 5-(benzylcarbamoylmethyl)-13-cyclohexyl-6,7-dihydro-5H-benzo[5,6][1,4]diazepino[7,1-a]indole-10-carboxylic acid] | > 7.00
O=C(O)c1ccc2c(C3CCCCC3)c3n(c2c1)CCN(CC(=O)N1CCOCC1)c1ccccc1-3 [Example 1-26, 13-cyclohexyl-5-[2-(morpholin-4-yl)-2-oxoethyl]-6,7-dihydro-5H-benzo[5,6][1,4]diazepino[7,1-a]indole-10-carboxylic acid] | > 7.00
O=C(O)c1ccc2c(C3CCCCC3)c3n(c2c1)CCN(CCN1CCOCC1)c1ccccc1-3 [Example 1-27, 13-cyclohexyl-5-[2-(morpholin-4-yl)ethyl]-6,7-dihydro-5H-benzo[5,6][1,4]diazepino[7,1-a]indole-10-carboxylic acid dihydrochloride] | > 7.00
COc1ccc2c(c1)N(CC(=O)N(C)C)CCn1c-2c(C2CCCCC2)c2ccc(C(=O)O)cc21 [Example 1-28, 13-cyclohexyl-5-dimethylcarbamoylmethyl-3-methoxy-6,7-dihydro-5H-benzo[5,6][1,4]diazepino[7,1-a]indole-10-carboxylic acid] | > 7.00
O=C(O)c1ccc2c(C3CCCCC3)c3n(c2c1)CCN(CC(=O)N1CCCCC1)c1ccccc1-3 [Example 1-29, 13-cyclohexyl-5-[2-oxo-2-(piperidin-1-yl)ethyl]-6,7-dihydro-5H-benzo[5,6][1,4]diazepino[7,1-a]indole-10-carboxylic acid] | > 7.00
CCN1CCN(C(=O)CN2CCn3c(c(C4CCCCC4)c4ccc(C(=O)O)cc43)-c3ccccc32)CC1 [Example 1-30, 13-cyclohexyl-5-[2-(4-ethylpiperazin-1-yl)-2-oxoethyl]-6,7-dihydro-5H-benzo[5,6][1,4]diazepino[7,1-a]indole-10-carboxylic acid dihydrochloride] | > 7.00
CN(C)C(=O)N1CCn2c(c(C3CCCCC3)c3ccc(C(=O)O)cc32)-c2ccccc21 [Example 1-31, 13-cyclohexyl-5-dimethylcarbamoyl-6,7-dihydro-5H-benzo[5,6][1,4]diazepino[7,1-a]indole-10-carboxylic acid] | 6.00 to 7.00
O=C(O)c1ccc2c(C3CCCCC3)c3n(c2c1)CCN(CCN1CCCCC1)c1ccccc1-3 [Example 1-32, 13-cyclohexyl-5-[2-(piperidin-1-yl)ethyl]-6,7-dihydro-5H-benzo[5,6][1,4]diazepino[7,1-a]indole-10-carboxylic acid dihydrochloride] | > 7.00
O=C(CN1CCn2c(c(C3CCCCC3)c3ccc(C(=O)O)cc32)-c2ccccc21)NCc1ccccn1 [Example 1-33, 13-cyclohexyl-5-{[(pyridin-2-ylmethyl)carbamoyl]methyl}-6,7-dihydro-5H-benzo[5,6][1,4]diazepino[7,1-a]indole-10-carboxylic acid dihydrochloride] | > 7.00
O=C(O)c1ccc2c(C3CCCCC3)c3n(c2c1)CCN(CCNCc1ccccn1)c1ccccc1-3 [Example 1-34, 13-cyclohexyl-5-{2-[(pyridin-2-ylmethyl)amino]ethyl}-6,7-dihydro-5H-benzo[5,6][1,4]diazepino[7,1-a]indole-10-carboxylic acid trihydrochloride] | > 7.00
O=C(O)c1ccc2c(C3CCCCC3)c3n(c2c1)CCN(CC(=O)N1CCC(O)CC1)c1ccccc1-3 [Example 1-35, 13-cyclohexyl-5-[2-(4-hydroxypiperidin-1-yl)-2-oxoethyl]-6,7-dihydro-5H-benzo[5,6][1,4]diazepino[7,1-a]indole-10-carboxylic acid monohydrochloride] | > 7.00
COC1CCN(C(=O)CN2CCn3c(c(C4CCCCC4)c4ccc(C(=O)O)cc43)-c3ccccc32)CC1 [Example 1-36, 13-cyclohexyl-5-[2-(4-methoxypiperidin-1-yl)-2-oxoethyl]-6,7-dihydro-5H-benzo[5,6][1,4]diazepino[7,1-a]indole-10-carboxylic acid monohydrochloride] | > 7.00
COCCN(C)C(=O)CN1CCn2c(c(C3CCCCC3)c3ccc(C(=O)O)cc32)-c2ccccc21 [Example 1-37, 13-cyclohexyl-5-{[N-(2-methoxyethyl)-N-methylcarbamoyl]methyl}-6,7-dihydro-5H-benzo[5,6][1,4]diazepino[7,1-a]indole-10-carboxylic acid monohydrochloride] | > 7.00
